Data set [1] addresses T1, Vasoactive Intestinal Polypeptide Receptor 1 (VIPR1) (Homo sapiens, UniProt P32241).
T1 construct: host or cells: HEK293 cells stably expressing CRE/CREB luciferase reporter
T1 sequence (P32241 31-457): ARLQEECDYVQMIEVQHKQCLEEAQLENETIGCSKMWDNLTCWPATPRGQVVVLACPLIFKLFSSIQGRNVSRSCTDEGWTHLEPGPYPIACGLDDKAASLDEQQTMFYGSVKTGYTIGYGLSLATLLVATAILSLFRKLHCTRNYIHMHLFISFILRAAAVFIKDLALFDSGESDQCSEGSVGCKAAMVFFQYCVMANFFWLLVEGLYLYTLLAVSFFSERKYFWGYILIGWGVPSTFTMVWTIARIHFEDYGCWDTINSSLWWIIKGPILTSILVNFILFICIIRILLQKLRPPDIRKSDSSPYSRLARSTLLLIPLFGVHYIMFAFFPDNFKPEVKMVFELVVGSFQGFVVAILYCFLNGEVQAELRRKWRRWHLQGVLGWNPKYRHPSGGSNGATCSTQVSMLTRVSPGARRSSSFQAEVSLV
Briefly: Non-specific effect on VIPR1, luciferase assay in HEK293 cells overexpressing VIPR1. The note with it: Ib 23.5 μM; VIPR peptide agonist 0.014 nM-145 nM. Format: cell-based. As for the experimental part: (§1) Compounds dissolved in 100% DMSO were diluted to indicated concentration in RPMI 1640 (0.5% DMSO included for all cell culture). After 4 hours of treatment, cells were harvested by cold luciferase cell culture lysis buffer and kept on shaker for 10 min at 4° C. Luciferase activity was measured using luciferin substrate and luminescence was read by Wallac 1420 multiplate reader. Luciferase activity of HEK293 reporting cells cultured using 0.5% DMSO and full RPMI medium was used as a vehicle control. Protein concentration of each well was determined by Bradford assay.
HEK293 cells stably expressing CRE/CREB Reporter (luciferase) were cultured in RPMI 1640 supplemented with 8% (v/v) fetal bovine serum, 2% (v/v) penicillin/streptomycin, and 100 μg/ml of Hygromycin B. Cells were maintained at 37° C. with 5% CO2. Cells were seeded into 6-well cell culture plates one day before transfection. After overnight incubation, cells were transiently transfected with 3.4 μg of VIPR1, using Lipofectamine 2000. After 4 hours of transfection, medium was replaced by RPMI supplemented with 5% (v/v) fetal bovine serum. After 24 hours of incubation, cells were trypsinized and seeded into 96 well cell culture plates (5.5×10^4 cells per well) and maintained at 37° C. in 5% CO2 for 24 hours. After 24 hours of incubation, the cells were starved with RPMI with 0.5% sera. […]

The next data set concerns INS-1 832/13 cells. Briefly: Glucose stimulated insulin production in INS-1 832/13 cells. The class given is cell-based, rat. The note with it: 16.7 mM glucose. The method, then:
INS-1 832/13 cells were cultured in RPMI 1640 supplemented with 2 mM L-glutamine, 1 mM sodium pyruvate, 10% FBS, 10 mM HEPES, 100 units/ml penicillin, 100 μg/ml streptomycin, and 50 μM β-mercaptoethanol. Cells were maintained in an incubator at 37° C. with 5% CO2. To determine the effect of GLP-1R agonist Ia and PAM Ib on insulin production, INS-1 cells were seeded onto 24 well plates. After 48 hours of incubation, cells were washed twice with 200 μl of Krebs-Ringer Bicarbonate (KRB) buffer and starved for 2 hours in fresh KRB supplemented with 0.1% serum. […] After 20 minutes, the supernatant was collected, centrifuged at 1000 rpm for 5 min at 4° C., and aliquoted and stored at −20° C. These samples were used to determine insulin concentration using insulin detection kit ELISA following the manual.

The target of another data set is T2, human GLP-1R (Homo sapiens, UniProt P43220).
T2 construct: Flag (N); host or cells: HEK293 cells stably expressing CRE/CREB luciferase reporter (BPS Bioscience #60515)
Put plainly: CRE luciferase reporter assay in HEK293 cells transiently expressing human GLP-1R. The class given is cell-based. The note with it: for GLP-1R activity stimulated by GLP-1 in combination with compound vs GLP-1 alone: GLP-1 0.014 nM-145 nM. The method, then:
HEK293 cells stably expressing CRE/CREB Reporter (luciferase) were cultured in RPMI medium supplemented with 8% (v/v) fetal bovine serum, 2% (v/v) penicillin/streptomycin, and 100 μg/ml of Hygromycin B. Cells were maintained in an incubator at 37° C. with 5% CO2. Cells were seeded into 6-well cell culture plates one day before transfection. After overnight incubation, one well of cell was transiently transfected with 3.4 μg of human GLP-1R or empty vector, respectively, using lipofectamine 2000. After 4 hours of transfection, transfection medium was replaced by RPMI medium supplemented with 5% (v/v) fetal bovine serum and 2% (v/v) penicillin/streptomycin. After 24 hours of incubation, cells were trypsinized and seeded into 96 well cell culture plates (5.5× 10^4 cells per well) and maintained at 37° C. in 5% CO2 incubator for 24 hours. The cells were starved using RPMI with 0.5% sera. After 24 hours of starvation, the transfected cells were treated with compounds as indicated.
as §1
The concentration-dependent dose response curve was generated using Graph Pad Prism 6.0 for Mac (GraphPad Software Inc., San Diego, CA). The curves were fitted based on sigmoidal dose response with the bottom parameter being kept 0. The EC50 value was calculated from Prism. The statistical difference between different groups was analyzed by 2-way ANOVA module in Prism.
A general note: In a reporter assay the amount or activity of a reporter protein is the signal.

Data set [2] is described as follows: Compound stability (statement). Format: physicochemical.

“Also recorded” adds a separate entry of the source. Ends that are not written are not given here.

T2 sequence (P43220 24-463): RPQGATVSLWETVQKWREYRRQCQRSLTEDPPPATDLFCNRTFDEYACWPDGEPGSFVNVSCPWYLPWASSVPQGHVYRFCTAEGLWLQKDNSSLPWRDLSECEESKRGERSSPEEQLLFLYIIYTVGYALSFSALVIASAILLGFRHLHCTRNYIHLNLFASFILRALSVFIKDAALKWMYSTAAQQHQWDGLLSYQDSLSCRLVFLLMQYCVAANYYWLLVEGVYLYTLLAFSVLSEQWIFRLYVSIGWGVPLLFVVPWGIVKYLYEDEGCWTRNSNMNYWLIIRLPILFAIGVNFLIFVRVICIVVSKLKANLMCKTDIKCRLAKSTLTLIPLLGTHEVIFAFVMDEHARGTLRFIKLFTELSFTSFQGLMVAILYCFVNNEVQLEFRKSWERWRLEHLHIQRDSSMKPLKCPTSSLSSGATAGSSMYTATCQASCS

Turning to `CCOC(=O)c1c(N)sc2c1CCCC2C` (centres unmarked) [Compound Ib, ethyl 2-amino-7-methyl-4,5,6,7-tetrahydrobenzo[b]thiophene-3-carboxylate], the “non-specific activity on VIPR1 (VIPR1 activity with VIPR agonist in combination with Ib vs agonist alone)” value in data set [1] is on record as “did not induce non-specific activity; also recorded: no potential non-specific activity on VIPR1”. Also, the “insulin secretion, Ib in combination with GLP-1 vs GLP-1 alone” value with INS-1 832/13 cells (Ib 11.75 μM + GLP-1 0.18 μM) is recorded as “more than 2.5 fold”. The “amount of insulin produced by Ib compared with vehicle control” value in the data set on INS-1 832/13 cells (Ib 11.75 μM alone) is listed as “no significant difference”. Moreover, the “GLP-1R activity stimulated by GLP-1 in combination with compound vs GLP-1 alone” value at human GLP-1R (Ib 23.5 μM) was “significantly increased”.
`CC1CCCc2c1sc1nc(S)n(N)c(=O)c21` (centres unmarked) [Compound Ic, 3-amino-2-mercapto-8-methyl-5,6,7,8-tetrahydrobenzo[4,5]thieno[2,3-d]pyrimidin-4(3H)-one]: the “stability (statement)” value in data set [2] was “unstable”. Further, on human GLP-1R (Ic 71 μM), the “GLP-1R activity stimulated by GLP-1 in combination with compound vs GLP-1 alone” value is listed as “significantly increased”. The “potency as PAM (statement)” value at human GLP-1R (compared with Ib) is reported as “less potent”.
For “GLP-1: GLP-1R peptide agonist (Sigma #9416), endogenous ligand of GLP-1R (HAEGTFTSDVSSYLEGQAAKEFIAWLVKGR; ends and bridges not checked; UniProt P01275 98-127, looked up) [reference compound]”, in the data set with INS-1 832/13 cells (GLP-1 0.18 μM, both time points), the “insulin production compared to vehicle control” value is on record as “more than two-fold”.

The record behind these values is patent US12691118B2, “Allosteric agonists and positive allosteric modulators of Glucagon-like peptide 1 receptor” (University of the Sciences, priority 2019, dated 2026).
